Laboratory results published in patent publication US11420969B2 (Exonate Limited, priority 2017, dated 2022).

Columns and labels:
[1] = target: SRPK1 (Homo sapiens, UniProt Q96SB4); experiment: In vitro SRPK1 assay (Kinase-Glo); type: biochemical
[2] = target: T1, CYP1A2 (Homo sapiens, UniProt P05177); experiment: CYP inhibition assay, human liver microsomes, substrate tacrine; type: in vitro ADME; conditions: human liver microsomes, 10 min incubation, LC-MS/MS; read-out: CYP Inhibition Activity (IC50/nM) CYP1A2
T1 construct: from tissue; host or cells: human liver microsomes
T1 sequence (P05177 1-516): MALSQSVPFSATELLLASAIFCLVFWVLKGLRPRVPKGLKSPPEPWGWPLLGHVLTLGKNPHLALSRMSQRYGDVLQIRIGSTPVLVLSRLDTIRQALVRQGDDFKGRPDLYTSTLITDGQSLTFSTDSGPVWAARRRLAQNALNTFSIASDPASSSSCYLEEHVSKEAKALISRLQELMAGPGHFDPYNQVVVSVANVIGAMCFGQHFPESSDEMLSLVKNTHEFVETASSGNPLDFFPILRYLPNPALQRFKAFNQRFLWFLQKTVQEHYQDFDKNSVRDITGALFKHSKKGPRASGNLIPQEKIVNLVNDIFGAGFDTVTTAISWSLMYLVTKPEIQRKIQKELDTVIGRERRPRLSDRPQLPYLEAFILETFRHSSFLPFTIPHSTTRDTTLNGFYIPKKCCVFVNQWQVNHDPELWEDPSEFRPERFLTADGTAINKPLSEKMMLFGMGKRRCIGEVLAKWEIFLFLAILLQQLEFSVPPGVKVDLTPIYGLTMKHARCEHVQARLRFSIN
Protocol: (§1) 2 μL of test compound/Positive Inhibitor working solutions is then added to the reaction plate (2 μL/well). For control, 2 μL of Acetonitrile (ACN) containing DMSO (without inhibitor) is added to the reaction plate. 20 μL of substrate pool is added to all the wells of the reaction plate. The samples are mixed in a vortexer and pre-incubated at 37° C. for 20 min. The NADPH solution is pre-warmed at 37° C. for 5 min. 20 μL of pre-warmed NADPH solution is added to the reaction plate and then incubated at 37° C. for 10 min. The reaction is terminated by adding cold ACN (200 μL/well) to the reaction mixture and centrifuging at 4,000 rpm for 20 minutes. After centrifugation, supernatant is separated and analyzed by LC-MS/MS.
(§2) % inhibition and IC50 are calculated using Graphpad Prism software.

[3] = target: T2, CYP2C9 (Homo sapiens, UniProt P11712); experiment: CYP inhibition assay, human liver microsomes, substrate diclofenac; type: in vitro ADME; conditions: human liver microsomes, 10 min incubation, LC-MS/MS; read-out: CYP Inhibition Activity (IC50/nM) CYP2C9
T2 construct: from tissue; host or cells: human liver microsomes
T2 sequence (P11712 whole entry): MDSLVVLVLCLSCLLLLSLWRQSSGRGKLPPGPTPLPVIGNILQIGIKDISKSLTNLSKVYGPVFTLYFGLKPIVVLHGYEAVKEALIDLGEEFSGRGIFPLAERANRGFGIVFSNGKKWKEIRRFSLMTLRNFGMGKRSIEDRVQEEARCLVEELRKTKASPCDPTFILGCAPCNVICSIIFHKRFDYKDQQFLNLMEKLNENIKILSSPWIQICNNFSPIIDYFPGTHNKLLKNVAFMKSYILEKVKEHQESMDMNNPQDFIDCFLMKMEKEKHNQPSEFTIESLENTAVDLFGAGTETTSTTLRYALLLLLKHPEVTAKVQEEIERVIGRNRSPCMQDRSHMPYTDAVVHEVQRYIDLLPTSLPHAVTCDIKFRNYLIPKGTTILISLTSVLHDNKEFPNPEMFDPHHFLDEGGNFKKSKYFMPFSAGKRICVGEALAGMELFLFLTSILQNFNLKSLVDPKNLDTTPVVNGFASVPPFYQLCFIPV
Protocol: as §1, §2

[4] = target: T3, CYP2C19 (Homo sapiens, UniProt P33261); experiment: CYP inhibition assay, human liver microsomes, substrate S-mephenytoin; type: in vitro ADME; conditions: human liver microsomes, 10 min incubation, LC-MS/MS; read-out: CYP Inhibition Activity (IC50/nM) CYP2C19
T3 construct: from tissue; host or cells: human liver microsomes
T3 sequence (P33261 whole entry): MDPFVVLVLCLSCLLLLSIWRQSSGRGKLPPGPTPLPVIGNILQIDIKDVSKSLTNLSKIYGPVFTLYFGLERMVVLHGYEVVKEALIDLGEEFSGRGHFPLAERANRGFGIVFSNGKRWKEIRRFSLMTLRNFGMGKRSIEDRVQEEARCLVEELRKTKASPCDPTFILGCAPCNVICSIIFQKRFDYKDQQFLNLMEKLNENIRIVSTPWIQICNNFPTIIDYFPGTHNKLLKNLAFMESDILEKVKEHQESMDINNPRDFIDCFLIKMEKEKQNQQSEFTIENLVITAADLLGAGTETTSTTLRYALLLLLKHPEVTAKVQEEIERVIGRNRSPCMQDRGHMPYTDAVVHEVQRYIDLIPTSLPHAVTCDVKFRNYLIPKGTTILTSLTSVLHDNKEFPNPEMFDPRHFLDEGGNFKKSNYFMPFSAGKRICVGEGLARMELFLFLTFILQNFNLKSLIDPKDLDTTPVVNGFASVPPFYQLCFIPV
Protocol: as §1, §2

[5] = target: T4, CYP2D6 (Homo sapiens, UniProt P10635); experiment: biochemical; type: in vitro ADME
T4 construct: from tissue; host or cells: human liver microsomes
T4 sequence (P10635 whole entry): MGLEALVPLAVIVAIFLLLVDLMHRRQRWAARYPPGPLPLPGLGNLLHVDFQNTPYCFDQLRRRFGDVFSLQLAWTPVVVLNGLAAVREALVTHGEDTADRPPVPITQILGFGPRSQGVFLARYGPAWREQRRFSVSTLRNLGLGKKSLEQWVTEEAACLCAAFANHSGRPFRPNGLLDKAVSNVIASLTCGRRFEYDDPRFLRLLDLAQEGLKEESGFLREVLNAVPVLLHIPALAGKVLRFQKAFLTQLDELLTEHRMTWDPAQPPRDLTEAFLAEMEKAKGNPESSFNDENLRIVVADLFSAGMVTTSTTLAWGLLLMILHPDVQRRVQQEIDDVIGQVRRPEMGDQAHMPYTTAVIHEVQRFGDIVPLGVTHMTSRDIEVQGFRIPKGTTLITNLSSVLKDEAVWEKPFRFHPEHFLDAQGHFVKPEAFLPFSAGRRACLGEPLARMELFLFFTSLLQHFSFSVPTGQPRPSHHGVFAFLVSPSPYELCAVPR
Protocol: 158 μL of Human Liver Microsomes working stock solution is added to a reaction plate (0.253 mg/mL, 158 μL/well). 2 μL of test compound/Positive Inhibitor working solutions is then added to the reaction plate (2 μL/well). For control, 2 μL of Acetonitrile (ACN) containing DMSO (without inhibitor) is added to the reaction plate. 20 μL of substrate pool is added to all the wells of the reaction plate. The samples are mixed in a vortexer and pre-incubated at 37° C. for 20 min. The NADPH solution is pre-warmed at 37° C. for 5 min. 20 μL of pre-warmed NADPH solution is added to the reaction plate and then incubated at 37° C. for 10 min. The reaction is terminated by adding cold ACN (200 μL/well) to the reaction mixture and centrifuging at 4,000 rpm for 20 minutes. After centrifugation, supernatant is separated and analyzed by LC-MS/MS.
as §2

[6] = target: T5, CYP3A4 (Homo sapiens, UniProt P08684); experiment: CYP inhibition assay, human liver microsomes, substrate midazolam; type: in vitro ADME; conditions: human liver microsomes, 10 min incubation, LC-MS/MS; read-out: CYP Inhibition Activity (IC50/nM) CYP3A4
T5 construct: from tissue; host or cells: human liver microsomes
T5 sequence (P08684 whole entry): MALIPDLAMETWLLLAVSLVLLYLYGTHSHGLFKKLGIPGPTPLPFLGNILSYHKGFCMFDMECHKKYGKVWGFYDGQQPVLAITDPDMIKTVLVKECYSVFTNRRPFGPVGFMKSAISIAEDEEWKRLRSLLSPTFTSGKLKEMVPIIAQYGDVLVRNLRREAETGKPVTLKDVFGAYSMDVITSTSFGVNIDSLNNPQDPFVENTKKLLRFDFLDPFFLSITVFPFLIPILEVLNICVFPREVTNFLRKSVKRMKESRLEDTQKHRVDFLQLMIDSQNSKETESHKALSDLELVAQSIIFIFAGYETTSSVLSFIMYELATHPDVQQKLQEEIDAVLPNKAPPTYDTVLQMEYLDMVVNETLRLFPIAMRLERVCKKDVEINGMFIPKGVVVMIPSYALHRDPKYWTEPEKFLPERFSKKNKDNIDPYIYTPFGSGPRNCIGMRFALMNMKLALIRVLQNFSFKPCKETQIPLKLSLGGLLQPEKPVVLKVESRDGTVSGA
Protocol: as §1, §2

Sequence of SRPK1 (Q96SB4 whole entry, species assumed): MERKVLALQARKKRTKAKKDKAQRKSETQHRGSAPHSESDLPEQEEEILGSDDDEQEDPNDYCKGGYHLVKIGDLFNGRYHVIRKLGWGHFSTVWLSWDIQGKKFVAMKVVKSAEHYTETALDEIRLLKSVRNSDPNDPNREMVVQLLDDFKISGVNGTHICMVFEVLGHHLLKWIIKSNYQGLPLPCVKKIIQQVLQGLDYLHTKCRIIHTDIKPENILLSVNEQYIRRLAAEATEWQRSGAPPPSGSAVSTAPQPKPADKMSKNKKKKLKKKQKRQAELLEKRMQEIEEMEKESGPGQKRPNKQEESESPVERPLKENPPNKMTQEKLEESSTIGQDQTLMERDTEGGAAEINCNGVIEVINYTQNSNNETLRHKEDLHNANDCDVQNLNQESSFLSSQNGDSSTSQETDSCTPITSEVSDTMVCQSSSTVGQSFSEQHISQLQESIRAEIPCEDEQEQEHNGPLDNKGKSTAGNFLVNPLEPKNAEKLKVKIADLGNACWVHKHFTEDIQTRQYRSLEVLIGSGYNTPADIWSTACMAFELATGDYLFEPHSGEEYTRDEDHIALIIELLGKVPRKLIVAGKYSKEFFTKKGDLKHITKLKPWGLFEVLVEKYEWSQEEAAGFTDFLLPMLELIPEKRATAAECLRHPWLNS

Row | Structure (SMILES) | IC50 [1] [nM] | IC50 [2] [nM] | IC50 [3] [nM] | IC50 [4] [nM] | IC50 [5] [µM] | IC50 [6] [nM]
1 | CCC1(O)CCN(c2ccc(C(F)(F)F)cc2NC(=O)c2ccc(C3CCOCC3)o2)CC1 [Example 20, N-(2-(4-ethyl-4-hydroxypiperidin-1-yl)-5-(trifluoromethyl)phenyl)-5-(tetrahydro-2H-pyran-4-yl)furan-2-carboxamide] | 6 | > 30000 | > 30000 | > 30000 | > 30 | > 30000
2 | CN(C)C(=O)C1(C)CCN(c2ccc(C(F)(F)F)cc2NC(=O)c2ccc(-c3ccncc3)o2)CC1 [Example 74, N,N,4-trimethyl-1-(2-(5-(pyridin-4-yl)furan-2-carboxamido)-4-(trifluoromethyl)phenyl)-piperidine-4-carboxamide] | 2.9 | > 30000 | 1130 | 2890 | 1.55 | 720
3 | CC1(C)CCN(c2ccc(C3CC3)cc2NC(=O)c2ccc(C3CCOCC3)o2)CC1 [Example 64, N-(5-cyclopropyl-2-(4,4-dimethylpiperidin-1-yl)phenyl)-5-(tetrahydro-2H-pyran-4-yl)furan-2-carboxamide] | 5.6 | > 30000 | 15800 | > 30000 | > 30 | > 30000
4 | CC1(O)CCN(c2ccc(C3CC3)cc2NC(=O)c2ccc(-c3ccncc3)o2)CC1 [Example 6, N-(5-cyclopropyl-2-(4-hydroxy-4-methylpiperidin-1-yl)phenyl)-5-(pyridin-4-yl)furan-2-carboxamide] | 1.7 | 11700 | 790 | 1010 | 4.83 | 1050
5 | Cc1ccc(N2CCC(C)(O)CC2)c(NC(=O)c2ccc(-c3ccncc3)o2)c1 [Example 8, N-(2-(4-hydroxy-4-methylpiperidin-1-yl)-5-methylphenyl)-5-(pyridin-4-yl)furan-2-carboxamide] | 14.4 | 11100 | 1100 | 2900 | 6.1 | 1700
6 | COC1(C)CCN(c2ccc(C(F)(F)F)cc2NC(=O)c2ccc(C3CCOCC3)o2)CC1 [Example 18, N-(2-(4-methoxy-4-methylpiperidin-1-yl)-5-(trifluoromethyl)-phenyl)-5-(tetrahydro-2H-pyran-4-yl)furan-2-carboxamide] | 54 | > 30000 | 5160 | 4910 | 15.8 | 9800
7 | CC1(O)CCN(c2ccc(C(F)(F)F)cc2NC(=O)c2ccc(C3CCOCC3)o2)CC1 [Example 11, N-(2-(4-hydroxy-4-methylpiperidin-1-yl)-5-(trifluoromethyl)-phenyl)-5-(tetrahydro-2H-pyran-4-yl)furan-2-carboxamide] | 3 | 17900 | 9310 | 10200 | 15.4 | 16300
8 | Cc1ccc(N2CCC(C)(CO)CC2)c(NC(=O)c2ccc(C3CCOCC3)o2)c1 [Example 66, N-(2-(4-(hydroxymethyl)-4-methylpiperidin-1-yl)-5-methylphenyl)-5-(tetrahydro-2H-pyran-4-yl)furan-2-carboxamide] | 10 | > 30000 | 2000 | 11400 | > 30 | > 30000
9 | O=C(Nc1cc(C(F)(F)F)ccc1N1CCC(O)(CC2CC2)CC1)c1ccc(C2CCOCC2)o1 [Example 23, N-(2-(4-(cyclopropylmethyl)-4-hydroxypiperidin-1-yl)-5-(trifluoromethyl)phenyl)-5-(tetrahydro-2H-pyran-4-yl)furan-2-carboxamide] | 64 | 2510 | 220 | 260 | 0.03 | 2650
10 | CC1(CO)CCN(c2ccc(C(F)(F)F)cc2NC(=O)c2ccc(-c3ccncc3)o2)CC1 [Example 24, N-(2-(4-(hydroxymethyl)-4-methylpiperidin-1-yl)-5-(trifluoromethyl)phenyl)-5-(pyridin-4-yl)furan-2-carboxamide] | 2 | > 30000 | > 30000 | > 30000 | > 30 | > 30000
11 | Cc1ccc(N2CCC(C)(C)CC2)c(NC(=O)c2ccc(C3CCOCC3)o2)c1 [Example 63, N-(2-(4,4-dimethylpiperidin-1-yl)-5-methylphenyl)-5-(tetrahydro-2H-pyran-4-yl)furan-2-carboxamide] | 25 | > 30000 | 14200 | > 30000 | > 30 | > 30000

Continued, values first:

Row | IC50 [1] [nM] | IC50 [2] [nM] | IC50 [3] [nM] | IC50 [4] [nM] | IC50 [5] [µM] | IC50 [6] [nM] | Structure (SMILES)
12 | 35 | > 30000 | > 30000 | 29200 | 2.8 | 6200 | CNCC1(C)CCN(c2ccc(C(F)(F)F)cc2NC(=O)c2ccc(C3CCOCC3)o2)CC1 [Example 82, N-(2-(4-methyl-4-((methylamino)methyl)-piperidin-1-yl)-5-(trifluoromethyl)phenyl)-5-(tetrahydro-2H-pyran-4-yl)furan-2-carboxamide]
13 | 4.8 | > 30000 | > 30000 | > 30000 | 3 | 18000 | CN1CCC2(CCN(c3ccc(C(F)(F)F)cc3NC(=O)c3ccc(C4CCOCC4)o3)CC2)C1 [Example 99, N-(2-(2-methyl-2,8-diazaspiro[4.5]decan-8-yl)-5-(trifluoromethyl)phenyl)-5-(tetrahydro-2H-pyran-4-yl)furan-2-carboxamide]
14 | 9.1 | > 30000 | 9130 | 20000 | 1.29 | 8320 | CC1(CN)CCN(c2ccc(C(F)(F)F)cc2NC(=O)c2ccc(-c3ccncc3)o2)CC1 [Example 78, N-(2-(4-(aminomethyl)-4-methylpiperidin-1-yl)-5-(trifluoromethyl)phenyl)-5-(pyridin-4-yl)furan-2-carboxamide]
15 | 167 | > 30000 | 17200 | 25100 | 0.3 | 23100 | Cc1ccc(N2CCC(C)(CN(C)C)CC2)c(NC(=O)c2ccc(C3CCOCC3)o2)c1 [Example 94, N-(2-(4-((dimethylamino)methyl)-4-methyl-piperidin-1-yl)-5-methylphenyl)-5-(tetrahydro-2H-pyran-4-yl)furan-2-carboxamide]
16 | 5.5 | > 30000 | 1000 | 10300 | 11.6 | 2800 | CC1(C(=O)N2CCOCC2)CCN(c2ccc(C(F)(F)F)cc2NC(=O)c2ccc(C3CCOCC3)o2)CC1 [Example 90, N-(2-(4-methyl-4-(morpholine-4-carbonyl)-piperidin-1-yl)-5-(trifluoromethyl)phenyl)-5-(tetrahydro-2H-pyran-4-yl)furan-2-carboxamide]
17 | 3.2 | > 30000 | 1700 | 4250 | 8.68 | 750 | CNC(=O)C1(C)CCN(c2ccc(C(F)(F)F)cc2NC(=O)c2ccc(C3CCOCC3)o2)CC1 [Example 76, N,4-dimethyl-1-(2-(5-(tetrahydro-2H-pyran-4-yl)furan-2-carboxamido)-4-(trifluoromethyl)-phenyl)piperidine-4-carboxamide]
